Results as given in the supplement of paper PMC11451515.

Tests used:
Conditions in all cases: 48 h
[1] = test system: SEM cells; assay: AUC of viability dose-response curve (% viability x log10 dose units); higher = less sensitive
How it was run: (§1)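 Seeding of medium-adapted leukemia cells was at 500 or 1000 cells/well in 1536-well plates, followed by 48 h at 37°C with library compounds in DMSO at 11 threefold doses from 47 μM to 0.79 nM. CellTiter-Glo One luminescence was normalised per plate to DMSO and cell-free wells and fitted as a four-parameter log-logistic function of log10 dose. Area under the curve was integrated by trapezoidal rule, with curves exceeding full viability scaled and curves failing quality control removed.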

[2] = test system: P12-Ichikawa; assay: as above
How it was run: as §1

[3] = test system: NOMO1; assay: as above
How it was run: as §1

[4] = test system: SEM cells; assay: cell viability relative to DMSO control; higher = less cytotoxic
How it was run: (§2)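 Viability was expressed as a per-plate percentage of DMSO wells, with cell-free wells as background. Leukemia cells (NOMO1 or SEM at 500 cells/well, P12-Ichikawa at 1000 cells/well) were adapted for at least four passages in each medium and seeded in 1536-well plates (5 μl). Library compounds in DMSO were pin-dosed over an 11-point threefold series from 47 μM to 0.79 nM, and CellTiter-Glo One luminescence was read after 48 h at 37°C.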

[5] = test system: P12-Ichikawa; assay: as above
How it was run: as §2

[6] = test system: NOMO1; assay: as above
How it was run: as §2

CCn1c(-c2nonc2N)nc2c(C#CC(C)(C)O)ncc(OC[C@H]3CCCNC3)c21
AUC of viability dose-response curve
Conditions | [1] | [2] | [3]
HPLM + 10% dialyzed FBS | 341 | 358 | 360
RPMI 5 mM glucose + 10% FBS | 397 | 282 | 388
RPMI 5 mM glucose + 10% dialyzed FBS | 345 | 313 | 390

cell viability [%]
Conditions | [4] | [5] | [6]
HPLM + 10% dialyzed FBS, 0.000781 µM | 78.7 | 91.1 | 91.3
HPLM + 10% dialyzed FBS, 0.00234 µM | 83.1 | 94 | 88.8
HPLM + 10% dialyzed FBS, 0.00702 µM | 87.2 | 89 | 80
HPLM + 10% dialyzed FBS, 0.0211 µM | 86.4 | 84.1 | 96
HPLM + 10% dialyzed FBS, 0.0632 µM | 75.2 | 73.1 | 73.4
HPLM + 10% dialyzed FBS, 0.19 µM | 82.7 | 74.6 | 75.8
HPLM + 10% dialyzed FBS, 0.569 µM | 76.9 | 69.9 | 71.9
HPLM + 10% dialyzed FBS, 1.71 µM | 66.2 | 66.3 | 61.7
HPLM + 10% dialyzed FBS, 5.12 µM | 70.3 | 65.8 | 70.3
HPLM + 10% dialyzed FBS, 15.4 µM | 43 | 61.4 | 71.7
HPLM + 10% dialyzed FBS, 46.1 µM | 10.5 | 58.7 | 48
RPMI 5 mM glucose + 10% FBS, 0.000781 µM | 104 | 77 | 80.8
RPMI 5 mM glucose + 10% FBS, 0.00234 µM | 96.6 | 86.2 | 82.5
RPMI 5 mM glucose + 10% FBS, 0.00702 µM | 107 | 76.2 | 84.1
RPMI 5 mM glucose + 10% FBS, 0.0211 µM | 94.1 | 70.6 | 84.1
RPMI 5 mM glucose + 10% FBS, 0.0632 µM | 75.7 | 53.1 | 79.8
RPMI 5 mM glucose + 10% FBS, 0.19 µM | 99.2 | 56.4 | 87.3
RPMI 5 mM glucose + 10% FBS, 0.569 µM | 96.4 | 46.2 | 81
RPMI 5 mM glucose + 10% FBS, 1.71 µM | 64.9 | 52.7 | 83.5
RPMI 5 mM glucose + 10% FBS, 5.12 µM | 77.7 | 45.1 | 82
RPMI 5 mM glucose + 10% FBS, 15.4 µM | 60 | 45.9 | 84.1
RPMI 5 mM glucose + 10% FBS, 46.1 µM | 14.8 | 46.7 | 49.3
RPMI 5 mM glucose + 10% dialyzed FBS, 0.000781 µM | 85.8 | 81.2 | 77.2
RPMI 5 mM glucose + 10% dialyzed FBS, 0.00234 µM | 85.2 | 87.4 | 96.1
RPMI 5 mM glucose + 10% dialyzed FBS, 0.00702 µM | 95.8 | 80.5 | 86.8
RPMI 5 mM glucose + 10% dialyzed FBS, 0.0211 µM | 75.7 | 77.3 | 93.7
RPMI 5 mM glucose + 10% dialyzed FBS, 0.0632 µM | 68.6 | 66.5 | 80.6
RPMI 5 mM glucose + 10% dialyzed FBS, 0.19 µM | 97.1 | 66.7 | 84.3
RPMI 5 mM glucose + 10% dialyzed FBS, 0.569 µM | 90.7 | 58.9 | 74.4
RPMI 5 mM glucose + 10% dialyzed FBS, 1.71 µM | 53.9 | 56.6 | 82
RPMI 5 mM glucose + 10% dialyzed FBS, 5.12 µM | 62.8 | 48.8 | 74.2
RPMI 5 mM glucose + 10% dialyzed FBS, 15.4 µM | 43.6 | 50.2 | 79.2
RPMI 5 mM glucose + 10% dialyzed FBS, 46.1 µM | 14.1 | 49.9 | 68.2

O=C(O)CCCCC(CCSCc1ccccc1)SCc1ccccc1 (stereo unspecified)
AUC of viability dose-response curve
Conditions | [1] | [2] | [3]
HPLM + 10% dialyzed FBS | 463 | 433 | 446
RPMI 5 mM glucose + 10% FBS | 458 | 462 | 457
RPMI 5 mM glucose + 10% dialyzed FBS | 467 | 457 | 451

cell viability [%]
Conditions | [4] | [5] | [6]
HPLM + 10% dialyzed FBS, 0.000781 µM | 87.7 | 108 | 109
HPLM + 10% dialyzed FBS, 0.00234 µM | 116 | 115 | 104
HPLM + 10% dialyzed FBS, 0.00702 µM | 111 | 114 | 105
HPLM + 10% dialyzed FBS, 0.0211 µM | 110 | 109 | 117
HPLM + 10% dialyzed FBS, 0.0632 µM | 104 | 120 | 124
HPLM + 10% dialyzed FBS, 0.19 µM | 115 | 116 | 115
HPLM + 10% dialyzed FBS, 0.569 µM | 113 | 122 | 118
HPLM + 10% dialyzed FBS, 1.71 µM | 131 | 113 | 135
HPLM + 10% dialyzed FBS, 5.12 µM | 111 | 118 | 110
HPLM + 10% dialyzed FBS, 15.4 µM | 119 | 62.1 | 86
HPLM + 10% dialyzed FBS, 46.1 µM | 102 | 9.29 | 28.7
RPMI 5 mM glucose + 10% FBS, 0.000781 µM | 106 | 112 | 108
RPMI 5 mM glucose + 10% FBS, 0.00234 µM | 102 | 117 | 112
RPMI 5 mM glucose + 10% FBS, 0.00702 µM | 91.5 | 138 | 115
RPMI 5 mM glucose + 10% FBS, 0.0211 µM | 101 | 119 | 113
RPMI 5 mM glucose + 10% FBS, 0.0632 µM | 118 | 128 | 121
RPMI 5 mM glucose + 10% FBS, 0.19 µM | 124 | 132 | 114
RPMI 5 mM glucose + 10% FBS, 0.569 µM | 110 | 130 | 107
RPMI 5 mM glucose + 10% FBS, 1.71 µM | 121 | 135 | 102
RPMI 5 mM glucose + 10% FBS, 5.12 µM | 115 | 121 | 109
RPMI 5 mM glucose + 10% FBS, 15.4 µM | 107 | 119 | 100
RPMI 5 mM glucose + 10% FBS, 46.1 µM | 99.6 | 58.4 | 39.1
RPMI 5 mM glucose + 10% dialyzed FBS, 0.000781 µM | 100 | 106 | 122
RPMI 5 mM glucose + 10% dialyzed FBS, 0.00234 µM | 106 | 116 | 116
RPMI 5 mM glucose + 10% dialyzed FBS, 0.00702 µM | 121 | 116 | 124
RPMI 5 mM glucose + 10% dialyzed FBS, 0.0211 µM | 138 | 111 | 123
RPMI 5 mM glucose + 10% dialyzed FBS, 0.0632 µM | 116 | 122 | 120
RPMI 5 mM glucose + 10% dialyzed FBS, 0.19 µM | 117 | 124 | 134
RPMI 5 mM glucose + 10% dialyzed FBS, 0.569 µM | 108 | 121 | 131
RPMI 5 mM glucose + 10% dialyzed FBS, 1.71 µM | 125 | 122 | 129
RPMI 5 mM glucose + 10% dialyzed FBS, 5.12 µM | 117 | 116 | 112
RPMI 5 mM glucose + 10% dialyzed FBS, 15.4 µM | 108 | 101 | 99.9
RPMI 5 mM glucose + 10% dialyzed FBS, 46.1 µM | 93.5 | 52.9 | 55.5
